From patent US20240294479A1, “POLYMORPHS OF 2-(3,5-DICHLOROPHENYL)-L,3-BENZOXAZOLE-6-CARBOXYLIC ACID” (HONOUR LAB LIMITED, priority 2021, published 2024)
≈ marks a conversion by molar mass, not a printed value.

Experiments:
[1] = at pH 5 and below; EMEA scientific discussion; cited from earlier work
[2] = Solubility of Tafamidis crystalline forms in water at different pH; type: physicochemical
Method: However the crystalline Forms of the present invention has water solubility greater than or equal to 3 μg/mL at pH 5 and below.
The solubility of Tafamidis crystallin Form HN3 in water at different pH is as follows: […]

Row | Structure (SMILES) | water solubility [1] [µg/mL] | solubility ([2]; pH 3, aqueous buffer) [µg/mL] | solubility ([2]; pH 4, aqueous buffer) [µg/mL] | solubility ([2]; pH 5, aqueous buffer) [µg/mL]
1 | O=C(O)c1ccc2nc(-c3cc(Cl)cc(Cl)c3)oc2c1 [Tafamidis (Form 1), 2-(3,5-dichlorophenyl)-1,3-benzoxazole-6-carboxylic acid] | < 2 |  |  | 
2 | O=C(O)c1ccc2nc(-c3cc(Cl)cc(Cl)c3)oc2c1 [Form HN3, 2-(3,5-dichlorophenyl)-1,3-benzoxazole-6-carboxylic acid] |  | 3 (≈ 9.74 µM) | 3 (≈ 9.74 µM) | 3 (≈ 9.74 µM)
